Results: paper PMC7195606 (Pharmacology, biochemistry, and behavior, 2020)

Assays:
C57Bl/6J mice [1] = assay: Rectal; assay type: in vivo; details: for maximal decrease in temperature, females / effect on body temperature, females / maximal decrease in temperature, males / effect on body temperature, males / effect on body temperature: single IP injection; for effect on body temperature, females / effect on body temperature, males / effect on body temperature: ambient 22-23 °C; for effect on body temperature: males and females
C57Bl/6J mice [2] = assay: Organ weights normalized to body weight; assay type: in vivo; details: 20-160 mg/kg IP, normalized according to body weight
C57Bl/6J mice [3] = assay: Histological analysis of organs by hematoxylin-eosin staining; assay type: in vivo; details: at lethal doses
C57Bl/6J mice [4] = assay: Lethality; assay type: in vivo; details: 2 hr observation; for lethal effects: 20-160 mg/kg IP (MDPV up to 140 mg/kg)
[5] = lower doses (<10 mg/kg IP); ref not given; cited from earlier work
[6] = ref Miner et al., 2017, cited from earlier work; for decrease in temperature after the first injection: first injection of a binge regimen
[7] = ref Piao et al., 2015; cited from earlier work

Row | SMILES | maximal decrease in temperature, females (C57Bl/6J mice [1]; females) | effect on body temperature, females (C57Bl/6J mice [1]; females) | time post injection with significant hypothermia vs baseline (C57Bl/6J mice [1]; males, 20 mg/kg IP) [min] | maximal decrease in temperature, males (C57Bl/6J mice [1]; males) | effect on body temperature, males (C57Bl/6J mice [1]; males) | normalized heart weight (C57Bl/6J mice [2]) | normalized liver weight (C57Bl/6J mice [2]) | liver histology (hematoxylin-eosin) (C57Bl/6J mice [3]) | lethal effects (C57Bl/6J mice [4]) | time post injection with significant hypothermia vs baseline (C57Bl/6J mice [1]; males, 80 mg/kg IP) | other results
1 | CNC(C)C(=O)c1ccc(C)cc1 (stereo not shown) [MMC, 4-methyl-methcathinone] | ≈ 6 °C | profound hypothermic effects | 20 | ≈ 4 °C | greatest temperature decreases in males compared to the five other drugs | increased normalized heart weight in a dose dependent manner | significantly increased normalized liver weight | minor changes in cell morphology in the liver |  |  | time post injection with significant hypothermia vs baseline (C57Bl/6J mice [1]; males, 120 mg/kg IP): 20 min
2 | C[C@H](N)C(=O)c1ccccc1 [CAT, cathinone] | ≈ 7 °C |  | 20 | ≈ 5 °C |  |  |  |  | no lethal effects at any dose | 20 min | time post injection with significant hypothermia vs baseline (C57Bl/6J mice [1]; females, 40 mg/kg IP): lasted the entire duration of the experiment; time post injection with significant hypothermia vs baseline (C57Bl/6J mice [1]; males, 40 mg/kg IP): 20 min; hyperthermia [5]: ≈ 1 °C
3 | CNC(C)C(=O)c1ccccc1 (stereo not shown) [MCAT, methcathinone] | ≈ 7 °C |  | 20 | ≈ 3 °C |  |  |  |  | this occurred at the highest dose and only in one subject | failed to show significance | time of peak hypothermic effect after injection (C57Bl/6J mice [1]; both males and females): 60 min; effect on body temperature (C57Bl/6J mice [1]): pronounced hypothermic effects; time post injection with significant hypothermia vs baseline (C57Bl/6J mice [1]; males, 120 mg/kg IP): did not identify an significant effects; time post injection with significant hypothermia vs baseline (C57Bl/6J mice [1]; males, 160 mg/kg IP): 60 min; hyperthermia [5]: ≈ 1 °C
4 | CNC(C)C(=O)c1ccc2c(c1)OCO2 (stereo not shown) [methylone] |  |  |  |  |  |  |  |  |  |  | decrease in temperature after the first injection [6]: 4 °C; LD50 compared with MA or MDMA [7]: slightly lower than that of MA or MDMA
5 | CCCC(C(=O)c1ccc2c(c1)OCO2)N1CCCC1 (stereo not shown) [MDPV, methylenedioxypyrovalerone] | ≈ 2 °C |  |  | ≈ 2 °C |  |  |  |  | no lethal effects at any dose | did not identify any significant differences | time post injection with significant hypothermia vs baseline (C57Bl/6J mice [1]; females, 80 mg/kg IP): 20 min; time post injection with significant hypothermia vs baseline (C57Bl/6J mice [1]; females, 100 mg/kg IP): 20 min; time post injection with significant hypothermia vs baseline (C57Bl/6J mice [1]; females, 120 mg/kg IP): 20 min; effect on body temperature (C57Bl/6J mice [1]): significant hypothermic effects in both males and females; time post injection with significant hypothermia vs baseline (C57Bl/6J mice [1]; males, 140 mg/kg IP): 20 min; effects on temperature ([6]; 1 mg/kg IP): did not find effects
6 | CNC(C)Cc1ccc2c(c1)OCO2 (stereo not shown) [MDMA, 3,4-methylenedioxymethamphetamine] |  | hypothermic effects |  |  | not significant at any dose | increased normalized heart weight in a dose dependent manner | did not significantly affect liver weight | minor changes in cell morphology in the liver |  |  | LD50 as base (C57Bl/6J mice [4]; single IP injection, males and females pooled): 100.92 mg/kg; decrease in temperature after the first injection [6]: 3 °C
7 | CN[C@@H](C)Cc1ccccc1 [MA, methamphetamine] |  | no significant differences in temperature post-injection |  |  | increased body temperature | increased normalized heart weight in a dose dependent manner | significantly increased normalized liver weight | minor changes in cell morphology in the liver |  |  | timepoint of return of temperature to baseline (C57Bl/6J mice [1]; males, 40 mg/kg IP): ≤ 100 min
